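Growth conditions: 96-well plates. Treatment: test compound, 48 hours, 5 concentrations. Analysis: linear interpolation between bracketing concentrations; unreached endpoints set to highest concentration. The concentration for 50% growth inhibition is given as GI50. TGI denotes the concentration required for complete inhibition of growth.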

The first assay concerns SK-OV-3 ovarian. Nature of the assay: NCI anticancer screen, dose series, 48 h.
Consider `O=C(COc1ccc(Br)cc1Br)N1N=C(c2ccc([N+](=O)[O-])o2)CC1(O)c1ccccc1` (configuration not stated), for which the TGI is above 100 µM.
As to `COc1cc(-c2nn(-c3ccc(NC(=O)c4ccc(Cl)c(C(F)(F)F)c4)cc3)cc2-c2ccncc2)ccc1Cl`, the GI50 is above 27.1 µM and the TGI is above 100 µM.
As for `Clc1ccc2c(NCCCCNc3nc(N4CCCCC4)nc4ccccc34)ccnc2c1`, the GI50 is 3.81 µM and the TGI came out at 14.4 µM.
Compound `NNC(=O)Nc1cccnc1` displayed a TGI above 100 µM.
The same measure, in the same setting: as for `Cc1cc(C)nc(NS(=O)(=O)c2ccc(NC(=O)c3ccc(Cl)c4c(Nc5ccc(S(=O)(=O)Nc6nc(C)cc(C)n6)cc5)c5ccccc5nc34)cc2)n1`, the figure is 76.5 µM.
Regarding `CCCCCN(CCCCC)CCCNc1c2c(nc3ccc(Cl)cc13)CCCC2`, the GI50 is 4.08 µM and the TGI came out at 13.8 µM.

A further assay relates to SNB-19 CNS. Description: NCI anticancer screen, dose series, 48 h.
As to `O=C(O)CCc1coc2ccc(O)cc12`, the TGI was above 100 µM.
The same measure, in the same setting: as for `Cc1ccc(N=Nc2ccc(N(CCC#N)CCC#N)cc2C)c(Br)c1`, the figure is above 100 µM; as for `CC(C)C/C(CC(=O)CCC(=O)Nc1ccccc1[N+](=O)[O-])=N\NC(=O)c1cc2ccccc2cc1O`, above 100 µM.
As to `O=C(N/C(=C\c1ccc(/C=C(\NC(=O)c2ccccc2)c2nc3cc([N+](=O)[O-])ccc3[nH]2)cc1)c1nc2cc([N+](=O)[O-])ccc2[nH]1)c1ccccc1`, the TGI is above 100 µM.
In turn, `COC(CN1C(=O)c2cccc3cccc(c23)C1=O)OC` yielded a TGI above 100 µM.
For `CCCCCCCCCCCCCCCCCC(CCCCCCCCCCCCCCCCC)OP(=O)(O)O`, the TGI was above 100 µM.
Same read-out and setting: as for `COC1(OC)CCC2C1C1CCC(OC)(OC)C21` (configuration not stated), the figure is above 50 µM; as for `CN1C(=O)C(C)(C)C2(SC(C)(C)C2(C)C)N(C)C1=S` (configuration not stated), above 100 µM.
In turn, `COc1cc2c(cc1OC)-c1c3cc(O)ccc3nn[n+]1CC2` displayed a TGI above 100 µM.
As for `Cc1nc2ccccc2c(N)c1-c1cc(C)c2c(C)nc3ccccc3c2n1`, the GI50 was 1.59 µM and the TGI was 3.39 µM.
In the case of `N#CCCN(CCC#N)c1ccc(/C=C2\N=C(c3cc([N+](=O)[O-])ccc3Cl)OC2=O)cc1`, the TGI was above 100 µM.
On the same count and under the same terms, as for `COc1ccccc1C12OC(=O)C1(C)Oc1ccccc1C2=O` (configuration not stated), the figure is above 100 µM.
As to `NC(Cc1c[nH]c2c(O)cccc12)C(=O)O` (configuration not stated), the GI50 is above 100 µM and the TGI was above 100 µM.
Turning to `O=C1C2C(C(=O)N1OS(=O)(=O)c1ccccc1)N(Cc1ccccc1)C(=O)N2Cc1ccccc1` (configuration not stated), the TGI is above 100 µM.
`O=C(COc1ccc(Br)cc1Br)N1N=C(c2ccc([N+](=O)[O-])o2)CC1(O)c1ccccc1` (configuration not stated) displayed a TGI of 68.2 µM.
`COc1cc(-c2nn(-c3ccc(NC(=O)c4ccc(Cl)c(C(F)(F)F)c4)cc3)cc2-c2ccncc2)ccc1Cl`: the GI50 was 4.55 µM and the TGI is above 100 µM.
With `CCCCOC(=O)C1OC(O[C@H]2CCC3(C)C(CCC4(C)C3CC=C3C5CC(C)(C)CCC5(C(=O)O)CC[C@]34C)C2(C)C)C(OC2OC(CO)C(O)C(O)C2O)C(OC2OC(CO)C(O)C(O)C2O)C1O` (some centres not stated), the GI50 was 22.5 µM and the TGI was found to be 53.6 µM.
The compound `N#CC1C(C#N)C2(c3ccccc3)C(c3ccccc3)=NN(c3ccccc3)CC12` (configuration not stated) returned a TGI above 100 µM.
Consider `Clc1ccc2c(NCCCCNc3nc(N4CCCCC4)nc4ccccc34)ccnc2c1`, for which the GI50 was 3.09 µM and the TGI came out at 14.2 µM.
With `O=C1/C(=C/c2ccccc2)CN(C(=O)C(Cl)(Cl)Cl)C/C1=C\c1ccccc1`, the TGI was determined as 10.7 µM.
Compound `CN(C)C(=N)c1ccccc1` came in with a TGI above 100 µM.
In turn, `NNC(=O)Nc1cccnc1` yielded a TGI above 100 µM.
In the case of `Cc1cc(C)nc(NS(=O)(=O)c2ccc(NC(=O)c3ccc(Cl)c4c(Nc5ccc(S(=O)(=O)Nc6nc(C)cc(C)n6)cc5)c5ccccc5nc34)cc2)n1`, the TGI is above 100 µM.
On the same count and under the same terms, in the case of `CC1=C(C(=O)NCc2ccccc2)C(/C=C/c2ccccc2)C(C(=O)NCc2ccccc2)=C(C)N1` it was above 100 µM.
Take `CCCCCN(CCCCC)CCCNc1c2c(nc3ccc(Cl)cc13)CCCC2`: the GI50 is 4.96 µM and the TGI was determined as 18.4 µM.

The test system of the next assay is TK-10 renal. Nature of the assay: NCI anticancer screen, dose series, 48 h.
Compound `O=C(O)CCc1coc2ccc(O)cc12` showed a TGI above 100 µM.
On the same count and under the same terms, as for `Cc1ccc(N=Nc2ccc(N(CCC#N)CCC#N)cc2C)c(Br)c1`, the figure is 66.3 µM.
Take `CC(C)C/C(CC(=O)CCC(=O)Nc1ccccc1[N+](=O)[O-])=N\NC(=O)c1cc2ccccc2cc1O`: the TGI is above 100 µM.
Still for that read-out and setting: in the case of `O=C(N/C(=C\c1ccc(/C=C(\NC(=O)c2ccccc2)c2nc3cc([N+](=O)[O-])ccc3[nH]2)cc1)c1nc2cc([N+](=O)[O-])ccc2[nH]1)c1ccccc1` it was 78.5 µM.
The same measure, in the same setting: in the case of `COC(CN1C(=O)c2cccc3cccc(c23)C1=O)OC` it was above 100 µM; in that of `CCCCCCCCCCCCCCCCCC(CCCCCCCCCCCCCCCCC)OP(=O)(O)O`, above 100 µM; in that of `COc1cc2c(cc1OC)-c1c3cc(O)ccc3nn[n+]1CC2`, above 100 µM.
Consider `Cc1nc2ccccc2c(N)c1-c1cc(C)c2c(C)nc3ccccc3c2n1`, for which the GI50 was 1.44 µM and the TGI turned out to be 2.78 µM.
With `COc1ccccc1C12OC(=O)C1(C)Oc1ccccc1C2=O` (configuration not stated), the TGI is above 100 µM.
As to `NC(Cc1c[nH]c2c(O)cccc12)C(=O)O` (configuration not stated), the GI50 was above 100 µM and the TGI was above 100 µM.
For the compound `O=C1C2C(C(=O)N1OS(=O)(=O)c1ccccc1)N(Cc1ccccc1)C(=O)N2Cc1ccccc1` (configuration not stated), the TGI is above 100 µM.
Turning to `COc1cc(-c2nn(-c3ccc(NC(=O)c4ccc(Cl)c(C(F)(F)F)c4)cc3)cc2-c2ccncc2)ccc1Cl`, the GI50 is 4.56 µM and the TGI is above 100 µM.
For `CCCCOC(=O)C1OC(O[C@H]2CCC3(C)C(CCC4(C)C3CC=C3C5CC(C)(C)CCC5(C(=O)O)CC[C@]34C)C2(C)C)C(OC2OC(CO)C(O)C(O)C2O)C(OC2OC(CO)C(O)C(O)C2O)C1O` (some centres not stated), in that order: 33.3 µM and above 100 µM.
On to `N#CC1C(C#N)C2(c3ccccc3)C(c3ccccc3)=NN(c3ccccc3)CC12` (configuration not stated), for which the TGI is above 100 µM.
For the compound `Clc1ccc2c(NCCCCNc3nc(N4CCCCC4)nc4ccccc34)ccnc2c1`, the GI50 was 1.68 µM and the TGI worked out at 3.5 µM.
The compound `O=C1/C(=C/c2ccccc2)CN(C(=O)C(Cl)(Cl)Cl)C/C1=C\c1ccccc1` showed a TGI of 8.72 µM.
Still for that read-out and setting: in the case of `CN(C)C(=N)c1ccccc1` it was above 100 µM; in that of `NNC(=O)Nc1cccnc1`, above 100 µM.
As to `Cc1cc(C)nc(NS(=O)(=O)c2ccc(NC(=O)c3ccc(Cl)c4c(Nc5ccc(S(=O)(=O)Nc6nc(C)cc(C)n6)cc5)c5ccccc5nc34)cc2)n1`, the TGI was found to be 83.1 µM.
On the same count and under the same terms, as for `CC1=C(C(=O)NCc2ccccc2)C(/C=C/c2ccccc2)C(C(=O)NCc2ccccc2)=C(C)N1`, the figure is above 100 µM.
For the compound `CCCCCN(CCCCC)CCCNc1c2c(nc3ccc(Cl)cc13)CCCC2`, the GI50 was 2.4 µM and the TGI came to 7.24 µM.

Values taken from PubChem BioAssay (NCI).
